Biological target: IDO1 (Homo sapiens, UniProt P14902)
Test: IDO1 HEK293 cellular assay
Type: cell-based
Conditions: HEK293 cells transfected with Flag-IDO1 vector, 20-24 hours, fluorescence readout
Description: IDO1 HEK293 Cellular Assay
Compounds to be tested were serially diluted in ten 3-fold steps in DMSO starting from 10 mM DMSO stocks. Compound dilutions or DMSO alone were then dispensed from the dilution plate into a Greiner black 384-well assay plate (catalog #781086) using an Echo 550 acoustic liquid handler (Labcyte).
HEK293 cell pellets were resuspended to 5×10^5 cells/mL in complete HEK293 culture media (89% DMEM, 10% FBS, 1% penicillin/streptomycin). Suspended cells (2 mL) were dispensed into each well of a 6-well Corning plate (Catalog # 3516). Cells were allowed to attach and were incubated for 20 hours at 37° C. in a 5% CO2 incubator. Flag-IDO1 vector (Genscript True ORF Gold, 2 ug) in 150 uL of Opti-MEM medium was added to each well of a Corning 24 well plate (Cat # 3527) and incubated for 5 minutes at room temperature. To each well of the 24-well plate was added […] Lipofectamine 2000 (Gibco) and the plate incubated at room temperature for 20-30 minutes. To each well of attached cells in the 6-well plate, […] of the transfection mix from the 24-well plate was gently added to each well and IDO1 protein was allowed to express for 24-30 hours at 37 degrees Celsius in a 5% CO2 incubator.
Media was removed from the cells which were then washed with 2 mL Dulbecco's phosphate-buffered saline (DPBS). After removal of DPBS, 0.5 mL of TrypLE (Gibco) was added and incubated at 5 minutes until cells lift from the surface of the wells. Complete HEK293 culture media (4 mL) was added to each well and cells were collected and pooled into a conical tube. Cells were pelleted at 200×g for 5 minutes and resuspended in an equal volume of complete DMEM medium. Cells were diluted to 4×10^5 cells per mL in complete HEK293 media. L-Tryptophan was added to added to give a final concentration of […]. The diluted transfected cells […] or nontransfected cells […] were dispensed into wells of Greiner black 384-well assay plates (catalog #781086) containing previously diluted compounds. The plate is briefly mixed and centrifuged at 200×g for 10 seconds to collect cells at the bottom of the plate. Plates were covered and incubated for 20-24 hours at 37 degrees C. in a 5% CO2 incubator. Afterwards […] of 0.5 M methyl isonipecotate in dimethyl sulfoxide was added to each well, mixed, sealed, and centrifuged at 500 rpm for 10 seconds. Plates were incubated at 37 degrees in a 5% CO2 incubator overnight to develop fluoresence. The plates are allowed to cool and then centrifuged for 1 minute at 1000×g. The resulting fluoresence was measured in an Envision plate reader (Perkin Elmer) with a 400/25 nm excitation filter and an 510/20 nm emission filter.
The fluoresence intensity of each well was corrected for the background observed in wells with untransfected cells and was expressed as a fraction of the intensity observed in wells of IDO1 transfected cells and DMSO only. Potencies were calculated by linear least squares fit to the four parameter logistic IC50 equation.

IDO1, sequence (P14902 whole entry): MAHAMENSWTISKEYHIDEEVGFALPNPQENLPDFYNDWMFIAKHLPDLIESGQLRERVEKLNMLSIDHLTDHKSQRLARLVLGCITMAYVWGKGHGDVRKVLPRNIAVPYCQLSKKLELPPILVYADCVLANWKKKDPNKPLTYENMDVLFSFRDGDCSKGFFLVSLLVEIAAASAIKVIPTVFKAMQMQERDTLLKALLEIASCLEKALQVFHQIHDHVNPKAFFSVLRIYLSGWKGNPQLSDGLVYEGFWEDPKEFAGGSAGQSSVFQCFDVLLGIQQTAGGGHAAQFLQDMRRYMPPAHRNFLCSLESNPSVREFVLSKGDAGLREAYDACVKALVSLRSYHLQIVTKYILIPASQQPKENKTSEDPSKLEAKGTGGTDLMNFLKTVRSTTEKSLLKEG

O=C(Nc1ccc(C2(C(=O)Nc3ccc(F)cc3)CCC2)cn1)C1CCCCC1 [Example 15, N-(5-{1-[(4-fluorophenyl)carbamoyl]cyclobutyl}pyridin-2-yl) cyclohexanecarboxamide]
IC50: 7 nM
